According to patent publication US8551999B2, “Heterocyclic compound and pharmaceutical composition thereof” (Otsuka Pharmaceutical Co., Ltd., priority 2007, dated 2013):

First: Br.Cn1c(C(=O)N2CCN(Cc3ccc(OC(F)(F)C(F)F)cc3)CC2)cc2cc(Oc3ccc(NC(=O)c4ccc(C(F)(F)F)cc4)cn3)ccc21 [Example 402, N-[6-(1-Methyl-2-{4-[4-(1,1,2,2-tetrafluoroethoxy)benzyl]-piperazine-1-carbonyl}-1H-indol-5-yloxy)pyridin-3-yl]-4-tri-fluoromethylbenzamide hydrobromide]
Second: Br.Cn1c(C(=O)N2CCN(Cc3ccc(OCC(F)(F)F)cc3)CC2)cc2ccc(Oc3ccc(NC(=O)c4ccc(C(F)(F)F)cc4)cn3)cc21 [Example 474, N-[6-(1-Methyl-2-{4-[4-(2,2,2-trifluoroethoxy)benzyl]piperazine-1-carbonyl}-1H-indol-6-yloxy)pyridin-3-yl]-4-trifluoromethyl-benzamide hydrobromide]
The melting point of the first is lower: 255 to 257 °C for the first, 269 to 270.3 °C for the second.

First: Br.Br.CN(C(=O)c1ccc(C(F)(F)F)cc1)c1ccc(Oc2ccc3c(c2)cc(C(=O)N2CCN(Cc4cccnc4)CC2)n3C)nc1 [Example 559, N-Methyl-N-{6-[1-methyl-2-(4-pyridin-3-ylmethylpiperazine-1-carbonyl)-1H-indol-5-yloxy]pyridin-3-yl}-4-trifluoromethyl-benzamide dihydrobromide]
Second: Br.CN(c1ccc(C(F)(F)F)cc1)c1ccc(Oc2ccc3c(c2)cc(C(=O)N2CCN(Cc4ccncc4)CC2)n3C)nc1 [Example 337, (1-Methyl-5-{5-[methyl(4-trifluoromethylphenyl)amino]pyridin-2-yloxy}-1H-indol-2-yl)(4-pyridin-4-ylmethylpiperazin-1-yl)-methanone hydrobromide]
The melting point of the first is higher: 191 to 193 °C for the first, 167 to 174 °C for the second.

Compared with `COc1ccc(CN2CCN(C(=O)c3cc4cc(Oc5ncc(N(C)C(=O)c6ccc(C(F)(F)F)cc6)cn5)ccc4n3C)CC2)cc1.O=C(O)/C=C\C(=O)O` [Example 381, N-(2-{2-[4-(4-Methoxybenzyl)piperazine-1-carbonyl]-1-methyl-1H-indol-5-yloxy}pyrimidin-5-yl)-N-methyl-4-trifluoromethylbenzamide maleate], `CC(C)Oc1ccc(CN2CCN(C(=O)c3cc4ccc(Oc5ccc(N(C)C(=O)c6ccc(C(F)(F)F)cc6)cn5)cc4n3C)CC2)cn1.O=C(O)/C=C\C(=O)O` [Example 444, N-(6-{2-[4-(6-Isopropoxypyridin-3-ylmethyl)piperazine-1-carbonyl]-1-methyl-1H-indol-6-yloxy}pyridin-3-yl)-N-methyl-4-tri-fluoromethylbenzamide maleate] is lower in melting point: 160 to 161 °C for the first, 156.8 to 157.4 °C for the second.

First: Br.CCOc1ccc(CN2CCN(C(=O)c3cc4cc(Oc5ccc(NC(=O)c6ccc(C(F)(F)F)cc6)cn5)ccc4n3C)CC2)cc1OCC [Example 340, N-(6-{2-[4-(3,4-Diethoxybenzyl)piperazine-1-carbonyl]-1-methyl-1H-indol-5-yloxy}pyridin-3-yl)-4-trifluoromethylbenzamide hydrobromide]
Second: Br.CC(C)Oc1ccc(CN2CCN(C(=O)c3cc4ccc(Oc5ccc(NC(=O)c6ccc(C(F)(F)F)cc6)cn5)cc4n3C)CC2)cc1 [Example 476, N-(6-{2-[4-(4-Isopropoxybenzyl)piperazine-1-carbonyl]-1-methyl-1H-indol-6-yloxy}pyridin-3-yl)-4-trifluoromethylbenzamide hydrobromide]
The melting point of the first is lower: 196 to 198 °C for the first, 258.7 to 259.6 °C for the second.

First: Cn1c(C(=O)N2CCN(Cc3ccccn3)CC2)cc2ccc(Oc3ccc(NC(=O)c4ccc(C(F)(F)F)cc4)cn3)cc21.O=C(O)C(=O)O.O=C(O)C(=O)O [Example 236, N-{6-[1-Methyl-2-(4-pyridin-2-ylmethylpiperazine-1-carbonyl)-1H-indol-6-yloxy]pyridin-3-yl}-4-trifluoromethylbenzamide dioxalate]
Second: CN(C(=O)c1ccc(C(F)(F)F)cc1)c1ccc(Oc2ccc3c(c2)cc(C(=O)N2CCN(Cc4ccccn4)CC2)n3C)nc1.O=C(O)C(=O)O.O=C(O)C(=O)O [Example 561, N-Methyl-N-{6-[1-methyl-2-(4-pyridin-2-ylmethylpiperazine-1-carbonyl)-1H-indol-5-yloxy]pyridin-3-yl}-4-trifluoromethyl-benzamide dioxalate]
The melting point of the first is higher: 176 to 178 °C for the first, 114 to 117 °C for the second.

First: Br.Cn1c(C(=O)N2CCN(Cc3ccc(OC(F)(F)F)cc3)CC2)cc2ccc(Oc3ccc(NC(=O)c4ccc(Cl)c(Cl)c4)cn3)cc21 [Example 264, 3,4-Dichloro-N-(6-{1-methyl-2-[4-(4-trifluoromethoxybenzyl)-piperazine-1-carbonyl]-1H-indol-6-yloxy}pyridin-3-yl)benzamide hydrobromide]
Second: Br.COc1ccc(CN2CCN(C(=O)c3cc4cc(Oc5ccc(NC(=O)c6ccc(C(F)(F)F)cc6Cl)cn5)ccc4n3C)CC2)cc1 [Example 231, 2-Chloro-N-(6-{2-[4-(4-methoxybenzyl)piperazine-1-carbonyl]-1-methyl-1H-indol-5-yloxy}pyridin-3-yl)-4-trifluoromethylbenzamide hydrobromide]
The melting point of the first is higher: 261.6 to 264.7 °C for the first, 239 to 241 °C for the second.

First: Cc1cc(C(F)(F)F)ccc1C(=O)Nc1ccc(Oc2ccc3cc(C(=O)N4CCN(Cc5ccc(OCC(F)(F)F)cc5)CC4)n(C)c3c2)nc1.Cl
Second: Cl.Cn1c(C(=O)N2CCN(Cc3ccc(OCC(F)(F)F)cc3)CC2)cc2ccc(Oc3ccc(NC(=O)c4ccc(C(F)(F)F)nc4)cn3)cc21
The melting point of the first is higher: 217.4 to 218.3 °C for the first, 195.4 °C for the second.

First: CN(c1ccc(Oc2ccc3c(c2)cc(C(=O)N2CCN(Cc4ccc(OCC(F)(F)F)cc4)CC2)n3C)nc1)S(=O)(=O)c1ccc(Cl)c(Cl)c1 [Example 528, 3,4-Dichloro-N-methyl-N-[6-(1-methyl-2-{4-[4-(2,2,2-trifluoro-ethoxy)benzyl]piperazine-1-carbonyl}-1H-indol-5-yloxy)pyridin-3-yl]benzenesulfonamide]
Second: CN(c1ccc(Oc2ccc3cc(C(=O)N4CCN(Cc5ccc(OC(F)F)cc5)CC4)n(C)c3c2)nc1)S(=O)(=O)c1ccc(Cl)c(Cl)c1 [Example 515, 3,4-Dichloro-N-(6-{2-[4-(4-difluoromethoxybenzyl)piperazine-1-carbonyl]-1-methyl-1H-indol-6-yloxy}pyridin-3-yl)-N-methyl-benzenesulfonamide]
The melting point of the first is higher: 174.8 to 175.8 °C for the first, 143.4 to 147.2 °C for the second.

Compared with `Br.CCN(C(=S)Nc1ccc(Cl)c(Cl)c1)c1ccc(Oc2ccc3c(c2)cc(C(=O)N2CCN(Cc4ccccc4)CC2)n3C)nc1` [Example 581, 1-{6-[2-(4-Benzylpiperazine-1-carbonyl)-1-methyl-1H-indol-5-yl-oxy]pyridin-3-yl}-3-(3,4-dichlorophenyl)-1-ethylthiourea hydrobromide], `Br.CN(c1ccc(C(F)(F)F)cc1)c1ccc(Oc2ccc3c(c2)cc(C(=O)N2CCN(Cc4ccccc4)CC2)n3C)nc1` [Example 336, (4-Benzylpiperazin-1-yl)(1-methyl-5-{5-[methyl(4-trifluoromethyl-phenyl)amino]pyridin-2-yloxyl}-1H-indol-2-yl)methanone hydrobromide] is higher in melting point: 163 to 168 °C for the first, 212 to 218 °C for the second.

First: Cc1ccc(S(=O)(=O)N(C)c2cnc(Oc3ccc4cc(C(=O)N5CCN(Cc6ccc(OC(C)C)cc6)CC5)n(C)c4c3)nc2)cc1 [Example 44, N-(2-{2-[4-(4-Isopropoxybenzyl)piperazine-1-carbonyl]-1-methyl-1H-indol-6-yloxy}pyrimidin-5-yl)-4,N-dimethylbenzenesulfonamide]
Second: Br.CC(C)Oc1ccc(CN2CCN(C(=O)c3cc4ccc(Oc5ccc(N(C)C(=O)c6ccc(OC(F)(F)F)cc6)cn5)cc4n3C)CC2)cc1 [Example 472, N-(6-{2-[4-(4-Isopropoxybenzyl)piperazine-1-carbonyl]-1-methyl-1H-indol-6-yloxy}pyridin-3-yl)-N-methyl-4-trifluoromethoxy-benzamide hydrobromide]
The melting point of the first is lower: 154.3 to 155.1 °C for the first, 237.2 to 238.5 °C for the second.

First: Br.Cc1ccc(C(=O)N(C)c2ccc(Oc3ccc4cc(C(=O)N5CCN(Cc6ccc(OCC(F)(F)F)cc6)CC5)n(C)c4c3)nc2)cc1 [Example 23, 4,N-Dimethyl-N-[6-(1-methyl-2-{4-[4-(2,2,2-trifluoroethoxy)-benzyl]piperazine-1-carbonyl}-1H-indol-6-yloxy)pyridin-3-yl]-benzamide hydrobromide]
Second: Br.Cn1c(C(=O)N2CCN(Cc3ccc(OCC(F)F)cc3)CC2)cc2ccc(Oc3ccc(NC(=O)c4ccc(C(F)(F)F)cc4)cn3)cc21 [Example 479, N-[6-(2-{4-[4-(2,2-Difluoroethoxy)benzyl]piperazine-1-carbonyl}-1-methyl-1H-indol-6-yloxy)pyridin-3-yl]-4-trifluoromethyl-benzamide hydrobromide]
The melting point of the first is lower: 226.1 to 227.3 °C for the first, 260.7 to 261.2 °C for the second.

First: Br.CCOc1ccc(CN2CCN(C(=O)c3cc4cc(Oc5cc(C)c(N(C)C(=O)c6ccc(Cl)c(Cl)c6)cn5)ccc4n3C)CC2)cc1 [Example 366, 3,4-Dichloro-N-(6-{2-[4-(4-ethoxybenzyl)piperazine-1-carbonyl]-1-methyl-1H-indol-5-yloxy}-4-methylpyridin-3-yl)-N-methylbenzamide hydrobromide]
Second: CN(c1ccc(Oc2ccc3cc(C(=O)N4CCN(Cc5ccc(OCC(F)(F)F)cc5)CC4)[nH]c3c2)nc1)S(C)(=O)=O [Example 285, N-Methyl-N-[6-(2-{4-[4-(2,2,2-trifluoroethoxy)benzyl]piperazine-1-carbonyl}-1H-indol-6-yloxy)pyridin-3-yl]methanesulfonamide]
The melting point of the first is higher: 201 to 204 °C for the first, 167 to 168.1 °C for the second.

Work on `Cn1c(C(=O)N2CCN(Cc3ccc(C#N)cc3)CC2)cc2cccc(Oc3ccc(NC(=O)c4ccc(C(F)(F)F)cc4)cn3)c21` [Example 245, N-(6-{2-[4-(4-Cyanobenzyl)piperazine-1-carbonyl]-1-methyl-1H-indol-7-yloxy}pyridin-3-yl)-4-trifluoromethylbenzamide] yielded a melting point of 228 to 229 °C.

With `Br.Br.Cn1c(C(=O)N2CCN(Cc3cccnc3)CC2)cc2cc(Oc3ccc(NC(=O)c4ccc(Cl)c(Cl)c4)cn3)ccc21` [Example 563, 3,4-Dichloro-N-{6-[1-methyl-2-(4-pyridin-3-ylmethylpiperazine-1-carbonyl)-1H-indol-5-yloxy]pyridin-3-yl}benzamide dihydrobromide] the melting point was 249 to 252 °C (dec.).
